In patent publication US6458760B1, “Method for treating tissue damaged from ischemia” (Henry Ford Health System, priority 1998, dated 2002):
Residues, ends and D or L forms follow the SMILES beside them. *: point of attachment. Cbz = O=C(OCc1ccccc1)*; CHN2 = [N-]=[N+]=C*; Bn = c1ccc(C*)cc1

Key:
Format in all cases: in vivo, rat
[1] = tested on: Wistar rats with MCA occlusion; experiment: Stroke model, 2 h MCA occlusion, i.v. infusion after reperfusion, infarct volume at 7 days; settings: for % Hemisphere Infarct Volume (% ± SEM): 2 h MCA occlusion, day 7, control 37 ± 2.6
Experimental: Male Wistar rat weighing between 270-290 gm are fasted the night prior to surgery. Each rat was then anesthetized with 3.5% halothane, and spontaneously respired with 0.5% halothane in a 2:1 N2O:O2 mixture using a face mask. A normal range of blood gases and pH is maintained during ischemia and reperfusion with the face mask inhalation, as verified by samples taken from a femoral artery PE-50 catheter. Body temperature is maintained constant at 37° C. with a recirculating heating pad and K module with an intrarectal type T thermocouple. The PE-50 catheters are inserted into the femoral artery and vein following induction of anesthesia to obtain the blood gas, glucose and hemoglobin concentrations and to monitor blood pressure.
The right common carotid artery, external carotid artery and internal carotid artery are isolated using microsurgical techniques. A clamp is applied to the common carotid artery and a 4-0 nylon suture with a rounded tip is inserted into the external carotid artery through a small puncture. The clamp on the common carotid artery is removed. The suture is passed distally into the internal carotid artery until it blocks the middle cerebral artery. Two hours after the MCA occlusion, the animal is again anesthetized, and the nylon suture is removed from the internal carotid artery.
Infusion of the inhibitor or vehicle is done by intravenous infusion via the femoral vein.
Syringe pumps were filled under sterile conditions with either isotonic saline/1% DMSO solution as the control or with the concentration of CP-1 or CP-2 indicated in the examples, hereinbelow. The pumps delivered the solution at a rate of 15 μl/min for up to 4 hours.
(§1) After anesthesia had been induced in the rat, a catheter was inserted into the femoral vein and tunneled subcutaneously in the posterior neck region. Body temperature was maintained at a constant temperature of 37° C. during surgical procedures. The animals underwent 2 hours of MCA occlusion, and then reperfusion when the suture was withdrawn, and immediately thereafter, the drug was infused for four hours. The animals were killed after a 7-day reperfusion, and the brains were formalin fixed and sliced 6-μm thick into seven coronal sections A-G, and mounted on coated slides. After staining with hematoxylin and eosin, the stroke volume was measured using an image analysis program. The stroke area and the contralateral hemispheric area were calculated by tracing the areas on the computer screen, and the volumes were determined by multiplying the appropriate area by the section interval thickness. The stroke volume is expressed as the percentage of lesion size to the volume of contralateral hemisphere. Statistical analysis was performed using the independent t-test.
CP-1 dissolved in 1% DMSO and isotonic saline was given intravenously to Wistar rats (15 μl/min) at concentrations of 2 μM, 10μM, 50μM and 25μM for 4 hours immediately after reperfusion following two hours of MCA occlusion, in accordance with the procedure described hereinabove. Control animals underwent a similar protocol but they had injected therein 1% DMSO/Saline as the vehicle within four hours. All animals which survived 7 days were sacrificed and the stroke volume calculated. The results are tabulated hereinbelow:
The protocol described hereinabove was repeated with CP-2 used in lieu of CP-1, at doses of 10, 50, 250 and 500 μM.

[2] = tested on: Wistar rats with MCA occlusion; experiment: Stroke model, 3 h MCA occlusion, infarct volume at 7 days
Experimental: as §1, with “Statistical analysis was performed using the independent t-test.” left out
CP-1 dissolved in 1% DMSO and isotonic saline was given intravenously to Wistar rats (15 μl/min) at a concentration of 50 μM for four hours beginning at the end of three hours of MCA occlusion, in accordance with the protocol described hereinabove. […] All animals which survived 7 days were sacrificed and the infarct volume was measured 7 days after the MCA occlusion. […]

[3] = Loss of body weight after MCA occlusion (Example 8)
Experimental: The animal is able to move about and take water as needed. However, animals with severe stroke that are not able to maintain intake of water are supplemented with daily subcutaneous Lactated Ringers solution. Daily body weights are followed to assess nutritional status.
CP-1 dissolved in 1% DMSO and isotonic saline was given intravenously to Wistar rats (15 μl/min) at a concentration of 50 μM for four hours beginning at the end of three hours of MCA occlusion, in accordance with the protocol described hereinabove. Control animals underwent a similar protocol, but they had injected therein a 1% DMSO/Saline as the vehicle for four hours beginning at the end of a three hour MCA occlusion. All animals which survived 7 days were sacrificed and the infarct volume was measured 7 days after the MCA occlusion.
The % loss of body weight from CP-1 treated animals and the control group on Day 1 and Day 7 are tabulated hereinbelow.

For `[N-]=[N+]=CC(=O)C(COCc1ccccc1)NC(=O)C(Cc1ccccc1)NC(=O)OCc1ccccc1` (stereo not drawn) [CP-1, benzyloxycarbonyl-Phe-Ser(OBz)-CHN2] (Cbz-Phe-Ser(Bn)-CHN2; configuration not given here), the “% Hemisphere Infarct Volume (% ± SEM)” value ([1]; 2 μM i.v. 15 μl/min for 4 h after reperfusion) was 39 ± 2.1, p > 0.1%, the “% Hemisphere Infarct Volume (% ± SEM)” value ([1]; 10 μM i.v. 15 μl/min for 4 h after reperfusion) was 22 ± 4.7, p = 0.01% and the “% Hemisphere Infarct Volume (% ± SEM)” value ([1]; 50 μM i.v. 15 μl/min for 4 h after reperfusion) was 20 ± 4.1, p = 0.003%. For the same compound, the “% Hemisphere Infarct Volume (% ± SEM)” value ([1]; 250 μM i.v. 15 μl/min for 4 h after reperfusion) was 23 ± 5.2, p = 0.02%, the “area of damage of the cerebral hemisphere” value ([1]; all doses except 2 μM, reduced from 37% in control) was “about 20%” and the “% Hemisphere Infact Volume (% ± SEM)” value ([2]; 50 μM i.v. for 4 h beginning at end of 3 h MCA occlusion, day 7, control 41.1 ± 2.4, P>0.05) was 39.9 ± 4.1%. For the same compound, the “reducing infarct size” value ([2]; 50 μM, 3 hour MCA occlusion) was “not effective”, the “% loss of body weight Day 1” value ([3]; 50 μM i.v. 4 h, Example 8, control 19 ± 2.0) was 16 ± 1.4% and the “% loss of body weight Day 7” value ([3]; 50 μM i.v. 4 h, Example 8, control 32 ± 3.0) was 28 ± 3.4%. For the same compound, the “loss of mean body weight, treated versus control” value ([3]; Day 1 and Day 7) was “no significant difference”.
